Here are results for 33 compounds from ChEMBL document CHEMBL2095176, “GSK Tuberculosis Screening Data”.

As a reminder, the kinetic solubility is the concentration staying in solution when a stock, usually in DMSO, is diluted into the medium. As a reminder, the logD is the decadic logarithm of the distribution of all forms, ionised or not, between an organic phase and buffer at a given pH. Low values mean lower lipophilicity, high ones higher lipophilicity. A word on the logP: it is a log measure of how a compound divides between an organic and an aqueous phase. Lower therefore signals lower lipophilicity.

The nature of data set [1]: physchem. The conditions noted are these: phosphate buffered saline, pH 7.4.
A short description of data set [2]: physchem. To be noted: buffer, pH 7.4.
Description: GSK_TB: GSK in-house hydrophobicity assay at pH7.4 (logD)
Data set [3] in a line: physchem. To be noted: octanol/water.
Description: GSK_TB: GSK in-house hydrophobicity assay (logP)
For data set [4], the system named is Mycobacterium tuberculosis H37Rv. Nature of the data set: microbe, parasite or virus in culture.
Description: GSK_TB: Intracellular minimum inhibitory concentration (MIC) H37Rv assay

Values after ≈ are worked out from the molar mass of the structure shown.

Compound `COc1ccc(CCNC(=O)c2c(C)nc3ccccn23)cc1` registered a solubility (kinetic) in “physchem [1]” of 348 µM (≈ 108 µg/mL). The logD in the data set “physchem [2]” came to 3.39. Moreover, the lipophilicity (logP) in “physchem [3]” came out at 3.41. Besides, the MIC90 in data set [4] was 3.1 µM (≈ 0.959 µg/mL).

For the compound `Cc1cccc(Cn2ccc(NC(=O)c3ccc4c(c3)OCO4)n2)c1`, the kinetic solubility in “physchem [1]” is 80 µM (≈ 26.8 µg/mL). The logD in “physchem [2]” is 5.07. The lipophilicity (logP) in the data set “physchem [3]” is 5.27. For the same compound, the MIC90 in data set [4] is 3.7 µM (≈ 1.24 µg/mL).

`c1csc(Cc2nn3c(-c4n[nH]c5c4CCC5)nnc3s2)c1` yielded a solubility (kinetic) in the data set “physchem [1]” of 196 µM (≈ 64.4 µg/mL). The compound further came in with a logD in the data set “physchem [2]” of 3.3. In “physchem [3]”, this compound yielded a lipophilicity (logP) of 3.48. The MIC90 in data set [4] worked out at 2.4 µM (≈ 0.788 µg/mL).

For `Brc1c(-c2ccc3c(c2)OCO3)nc2ncccn12`, in “physchem [1]”, the solubility (kinetic) is 219 µM (≈ 69.7 µg/mL). The compound further came in with a logD in “physchem [2]” of 3.48. The logP in “physchem [3]” was found to be 3.48. The compound also yielded an MIC90 in data set [4] of 4.7 µM (≈ 1.5 µg/mL).

Compound `O=C(c1cc2ccccc2o1)N1CCN(Cc2ccc3c(c2)OCO3)CC1` gave a kinetic solubility in “physchem [1]” of 171 µM (≈ 62.3 µg/mL). The same compound yielded a logD in “physchem [2]” of 5.63. This compound yielded a logP in the data set “physchem [3]” of 5.83. This compound registered an MIC90 in data set [4] of 2.7 µM (≈ 0.984 µg/mL).

Compound `Nc1nc(N)c2c(Sc3ccc4ccccc4c3)cccc2n1` yielded a solubility (kinetic) in “physchem [1]” of 32 µM (≈ 10.2 µg/mL). For the same compound, the logD in “physchem [2]” is 4.41. For the same compound, in “physchem [3]”, the logP came to 4.72. In data set [4], this compound came in with an MIC90 of 8.71 µM (≈ 2.77 µg/mL).

`COc1cc(CN2CCC3(C=Cc4ccccc43)CC2)cc2c1OCO2` yielded a solubility (kinetic) in the data set “physchem [1]” of 121 µM (≈ 42.3 µg/mL). This compound also came in with a logD in the data set “physchem [2]” of 7.03. The compound also yielded a logP in the data set “physchem [3]” of 8.25. In addition, the MIC90 in data set [4] turned out to be 9.5 µM (≈ 3.32 µg/mL).

Consider `CCOC(=O)CC[C@H](NC(=O)c1ccc(S(=O)(=O)Nc2ccc3nc(N)[nH]c(=O)c3c2)cc1)C(=O)OCC`, for which the solubility (kinetic) in “physchem [1]” was determined as 300 µM (≈ 164 µg/mL). In “physchem [2]”, the logD was 2.46. Also, the logP in “physchem [3]” is 2.45. Besides, the MIC90 in data set [4] is 1.5 µM (≈ 0.818 µg/mL).

Take `Cl.Cl.O=C(Nc1ccc(NC2=NCCN2)cc1)c1ccc(C(=O)Nc2ccc(NC3=NCCN3)cc2)cc1`: in the data set “physchem [1]”, the solubility (kinetic) was found to be 26 µM. This compound had a logD in “physchem [2]” of 0.12. This compound also registered a logP in “physchem [3]” of 0.918. The compound further had an MIC90 in data set [4] of 1.6 µM.

The compound `COc1ccc(-c2nsc(SCC(=O)N3CCCC3)n2)cc1` had a solubility (kinetic) in the data set “physchem [1]” of 10 µM (≈ 3.35 µg/mL). In “physchem [2]”, this compound yielded a logD of 4.97. The compound further came in with a logP in the data set “physchem [3]” of 5.27. This compound yielded an MIC90 in data set [4] of 1.6 µM (≈ 0.538 µg/mL).

The compound `Nc1cc(OCc2ccccc2)ccc1Nc1ccccc1` returned a solubility (kinetic) in the data set “physchem [1]” of 1 µM (≈ 0.29 µg/mL). The log distribution coefficient (logD) in the data set “physchem [2]” amounted to 6.65. Also, in the data set “physchem [3]”, the logP amounted to 6.94. Besides, the MIC90 in data set [4] turned out to be 9.44 µM (≈ 2.74 µg/mL).

For `CN(C)S(=O)(=O)c1ccc(C(=O)Nc2nnc(-c3ccc(Cl)s3)o2)cc1`, in the data set “physchem [1]”, the kinetic solubility was determined as 177 µM (≈ 73.1 µg/mL). In the data set “physchem [2]”, the logD came out at 2.83. The same compound yielded a logP in the data set “physchem [3]” of 4.69. The compound also came in with an MIC90 in data set [4] of 5.82 µM (≈ 2.4 µg/mL).

In turn, `O=C(C=Cc1cccs1)N1CCN(Cc2ccc3c(c2)OCO3)CC1` gave a solubility (kinetic) in the data set “physchem [1]” of 314 µM (≈ 112 µg/mL). The compound further came in with a logD in “physchem [2]” of 4.97. This compound also yielded a logP in the data set “physchem [3]” of 5.23. This compound returned an MIC90 in data set [4] of 0.3 µM (≈ 0.107 µg/mL).

In the data set “physchem [1]”, `O=C(CCC1CCCCC1)Nc1cccc(-c2nnc(-c3ccco3)o2)c1` had a solubility (kinetic) of 1 µM (≈ 0.365 µg/mL). This compound returned a logD in the data set “physchem [2]” of 6.84. In “physchem [3]”, this compound registered a log partition coefficient (logP) of 7.18. In addition, in data set [4], the MIC90 is 6.1 µM (≈ 2.23 µg/mL).

`Cc1nc2ccccn2c1C(=O)NCc1ccccc1` gave a solubility (kinetic) in the data set “physchem [1]” of 403 µM (≈ 107 µg/mL). Also, the logD in “physchem [2]” stood at 3.2. The compound also showed a logP in “physchem [3]” of 3.2. This compound also displayed an MIC90 in data set [4] of 2 µM (≈ 0.531 µg/mL).

In “physchem [1]”, `CCC(Sc1nc2ccccc2o1)C(=O)Nc1nccs1` (configuration not stated) registered a kinetic solubility of 105 µM (≈ 33.5 µg/mL). Also, the logD in “physchem [2]” turned out to be 5.44. Also, the logP in the data set “physchem [3]” worked out at 5.78. This compound yielded an MIC90 in data set [4] of 2.79 µM (≈ 0.89 µg/mL).

On to `CC(C)OC(=O)COc1ccc(-c2cnc(N(C)CCc3ccncc3)nc2)cc1`, for which the kinetic solubility in the data set “physchem [1]” turned out to be 182 µM (≈ 74 µg/mL). In “physchem [2]”, this compound gave a pH-dependent lipophilicity (logD) of 5.63. In the data set “physchem [3]”, this compound yielded a logP of 5.93. This compound gave an MIC90 in data set [4] of 6.76 µM (≈ 2.75 µg/mL).

For `C[C@@H](NCCc1nc(-c2cn(C)c3ccccc23)no1)C1CCCCC1.Cl`, the solubility (kinetic) in the data set “physchem [1]” was 202 µM. Moreover, in the data set “physchem [2]”, the pH-dependent lipophilicity (logD) stood at 6.56. For the same compound, in “physchem [3]”, the logP is 8.75. In data set [4], this compound had an MIC90 of 1.15 µM.

Take `COc1cc(Cc2cnc(N)nc2N)c2cnccc2c1N(C)C`: the kinetic solubility in the data set “physchem [1]” was 304 µM (≈ 98.6 µg/mL). In addition, the logD in the data set “physchem [2]” stood at 2.55. For the same compound, the logP in “physchem [3]” worked out at 2.61. In data set [4], the MIC90 was determined as 2.99 µM (≈ 0.968 µg/mL).

In “physchem [1]”, `CC1=Nc2ccccc2CN1CC(O)c1cc(Br)cs1` (configuration not stated) showed a solubility (kinetic) of 563 µM (≈ 198 µg/mL). The compound further registered a logD in the data set “physchem [2]” of 2.46. The lipophilicity (logP) in the data set “physchem [3]” came out at 4.12. In data set [4], the MIC90 is 7.85 µM (≈ 2.76 µg/mL).

For `O=C(COc1ccccc1)N1CCN(c2cnc3ccccc3n2)CC1`, the solubility (kinetic) in “physchem [1]” was 173 µM (≈ 60.3 µg/mL). For the same compound, in “physchem [2]”, the logD is 4.69. The compound also registered a logP in “physchem [3]” of 4.72. The same compound yielded an MIC90 in data set [4] of 3.09 µM (≈ 1.08 µg/mL).

`Cc1cc(OCC(=O)Nc2ccccc2)c2cc(Br)ccc2n1` gave a kinetic solubility in the data set “physchem [1]” of 16 µM (≈ 5.94 µg/mL). In the data set “physchem [2]”, this compound came in with a logD of 5.25. Further, the logP in “physchem [3]” came out at 5.44. Further, the MIC90 in data set [4] was 3.3 µM (≈ 1.23 µg/mL).

In turn, `FC(F)(F)c1cc(SCc2ccccc2)nc(-c2ccccn2)n1` came in with a solubility (kinetic) in “physchem [1]” of 1 µM (≈ 0.347 µg/mL). In “physchem [2]”, this compound registered a logD of 7.12. For the same compound, the log partition coefficient (logP) in “physchem [3]” stood at 7.54. This compound also showed an MIC90 in data set [4] of 3.3 µM (≈ 1.15 µg/mL).

`COc1ccccc1OCCCCn1c(C2CC2)nc2ccccc21` showed a solubility (kinetic) in “physchem [1]” of 167 µM (≈ 56.2 µg/mL). The same compound registered a logD in “physchem [2]” of 5.63. Moreover, the logP in “physchem [3]” was 5.83. In addition, the MIC90 in data set [4] was 3.4 µM (≈ 1.14 µg/mL).

Take `O=C(C=Cc1ccco1)N1CCN(Cc2ccc3c(c2)OCO3)CC1`: the solubility (kinetic) in “physchem [1]” was determined as 186 µM (≈ 63.3 µg/mL). This compound displayed a logD in “physchem [2]” of 4.51. The logP in the data set “physchem [3]” amounted to 4.72. The MIC90 in data set [4] was 4.6 µM (≈ 1.57 µg/mL).

For `Cc1ccc2nc(C)c(-c3ccn(Cc4ccccc4)n3)n2c1`, the kinetic solubility in the data set “physchem [1]” came to 120 µM (≈ 36.3 µg/mL). This compound returned a logD in “physchem [2]” of 5.16. The compound further displayed a logP in “physchem [3]” of 5.54. The compound further came in with an MIC90 in data set [4] of 5 µM (≈ 1.51 µg/mL).

In the data set “physchem [1]”, `O=C(/C=C/c1ccccc1)N1CCN(Cc2cccc(OCc3ccccc3)c2)CC1` had a kinetic solubility of 61 µM (≈ 25.2 µg/mL). In “physchem [2]”, the logD was found to be 7.21. In addition, the logP in “physchem [3]” turned out to be 7.54. In data set [4], this compound yielded an MIC90 of 8.22 µM (≈ 3.39 µg/mL).

`O=C(Nc1ccccc1-c1nc(C2CCC2)cs1)OCC1CCNCC1.O=C(O)C(F)(F)F` came in with a solubility (kinetic) in the data set “physchem [1]” of 115 µM. In addition, the logD in the data set “physchem [2]” came to 4.41. The same compound returned a lipophilicity (logP) in the data set “physchem [3]” of 8.15. Also, the MIC90 in data set [4] was found to be 8.71 µM.

`CCc1nc2ccccc2n1CC(O)COc1cc(C)ccc1Cl` (configuration not stated): the solubility (kinetic) in the data set “physchem [1]” came out at 1 µM (≈ 0.345 µg/mL). The same compound registered a logD in the data set “physchem [2]” of 5.35. In addition, the logP in the data set “physchem [3]” is 5.63. Moreover, the MIC90 in data set [4] was found to be 8.81 µM (≈ 3.04 µg/mL).

With `Cc1nc2ccccn2c1C(=O)NCc1cccs1`, the solubility (kinetic) in “physchem [1]” is 365 µM (≈ 99 µg/mL). This compound gave a logD in “physchem [2]” of 2.92. In the data set “physchem [3]”, this compound yielded a lipophilicity (logP) of 2.93. Besides, the MIC90 in data set [4] came to 9.02 µM (≈ 2.45 µg/mL).

In turn, `c1ccc(-c2nc(NC3CCCCC3)cc(C3CC3)n2)nc1` had a kinetic solubility in “physchem [1]” of 302 µM (≈ 88.9 µg/mL). Moreover, the logD in the data set “physchem [2]” turned out to be 6.09. For the same compound, in “physchem [3]”, the logP is 6.74. This compound yielded an MIC90 in data set [4] of 7.08 µM (≈ 2.08 µg/mL).

`c1ccc(-c2csc(Nc3nc4cc5c(cc4s3)OCO5)n2)nc1` came in with a solubility (kinetic) in the data set “physchem [1]” of 1 µM (≈ 0.354 µg/mL). Further, in the data set “physchem [2]”, the logD was determined as 5.07. In addition, the logP in “physchem [3]” was 5.06. Further, the MIC90 in data set [4] is 2.7 µM (≈ 0.957 µg/mL).

The compound `Fc1ccc2nc(Nc3nc(-c4ccccn4)cs3)sc2c1` gave a solubility (kinetic) in “physchem [1]” of 28.5 µM (≈ 9.36 µg/mL). Moreover, in the data set “physchem [2]”, the logD amounted to 5.53. In the data set “physchem [3]”, this compound displayed a logP of 5.54. Further, the MIC90 in data set [4] was found to be 2.3 µM (≈ 0.755 µg/mL).
